Usually Ki stands for the dissociation constant of the complex between target and ligand, obtained from inhibition or displacement.

For one test, the target named is T1, human 5HT2a receptors (Homo sapiens, UniProt P28223).
T1 construct: expressed in transfected cells; host or cells: CHO K1 cells
The test can be described thus: Competition radioligand binding, 5-HT2A. The following applies: [3H]Ketanserin; membranes of CHO K1 cells; read-out: Ki 5-HT2A. As to the method:
(§1) Cells and Membrane Preparation: HEK 293 cells stably expressing human 5-HT7B (h5-HT7b) receptors were grown in Dulbecco's Modified Eagle's Medium (DMEM; Gibco) without sodium pyruvate and containing 4.5 g/L glucose, L-glutamine/penicillin-streptomycin (Gemini), 10% fetal bovine serum and 250 mg/l of the antibiotic, G418 (Geneticin) as previously described (Jasper, J. R., Kosaka, A., To, Z. P., Chang, D. J. and Eglen, R. M. (1997) Cloning, expression and pharmacology of a truncated splice variant of the human 5-ht7 receptor (h5-ht7b). Br. J. Pharmacol. 122(1):126-132.). Cell pellets were homogenized in approximately 50 mL of homogenization buffer (buffer A) containing: 50 mM Tris (pH 7.4), 2 mM EGTA, 0.32 M sucrose, 10 μM PMSF, 1 μg/mL leupeptin, 5 μg/mL Pepstatin A, and 5 μg/mL aprotinin using an UltraTurax homogenizer (Tekmar Company, Cincinnati, Ohio) at 80% maximum setting three times for 10 sec. Cell pellets were centrifuged at 4° C. at 1,500×g for 10 min in a Beckman GS-6R centrifuge. Pellets were resuspended in buffer A, homogenized and centrifuged as described above. Pooled supernatants were transferred to centrifuge bottles and centrifuged at 4° C. at 20,000×g for 30 min in a Beckman J2-HS centrifuge. Cell pellets were resuspended in buffer A and were centrifuged at 4° C. at 20,000×g for 30 min. Cell pellets were resuspended in buffer A and stored at −70° C. in aliquots of 2.5 mg/mL total membrane protein. Total membrane protein was assessed utilizing a BCA kit (Pierce; Rockford, Ill.). Membranes containing human 5-HT1a or 5HT2a receptors expressed in CHO K1 cells were prepared as described above.
(§2) Radioligand Binding Assays: For 5-HT7 saturation binding experiments, HEK-293 cell membranes expressing h5-HT7 receptors (5-10 μg membrane protein/well) were incubated in duplicate with [^3H]5-CT (approximately 0.2 nM) in binding assay buffer containing: 50 mM HEPES (pH 7.4), 0.5 mM EDTA, 10 mM MgCl2, 10 μM pargyline to inhibit monoamine oxidase activity, and 0.1% sodium ascorbate, in a final volume of 200 μL in 96-well polypropylene plates for 2 hours at 37° C. Nonspecific binding was determined by incubating membranes with 1 μM 5-HT. All radioligand binding assays were stopped by rapid filtration onto 96-well GF/C filter plates (Packard) soaked in 0.1% polyethylenimine. Filters were washed three times with ice-cold phosphate-buffered saline (PBS) wash buffer containing 50 mM NaPO4 (pH 7.4), 0.9% NaCl, 2 mM MgCl2 and 0.02% NaN3. The filters were then counted using liquid scintillation in a Packard Topcount scintillation counter.
Data Analysis: Radioligand binding experiments were analyzed with Prism™ (Graphpad, San Diego, Calif.), a computer graphics and statistics program. IC50 values and Hill slopes for compounds were generated by nonlinear regression using Prism™. Values for Ki calculated from IC50 values by the Cheng and Prussoff equation (Cheng, Y. and Prusoff, W. H., (1973), “Relationship between the inhibition constant (Ki) and the concentration of inhibitor which causes 50 per cent inhibition (I50) of an enzymatic reaction.” Biochemical Pharmacol. 22:3099-3108).

The target in test [1] is T2, human D2S dopamine (hD2S-DA) receptors (Homo sapiens, UniProt P14416).
T2 construct: purchased Receptor Biology, Inc. (Beltsville, Md.); host or cells: A9 L cells
T2 sequence (P14416 1-414 isoform P14416-2): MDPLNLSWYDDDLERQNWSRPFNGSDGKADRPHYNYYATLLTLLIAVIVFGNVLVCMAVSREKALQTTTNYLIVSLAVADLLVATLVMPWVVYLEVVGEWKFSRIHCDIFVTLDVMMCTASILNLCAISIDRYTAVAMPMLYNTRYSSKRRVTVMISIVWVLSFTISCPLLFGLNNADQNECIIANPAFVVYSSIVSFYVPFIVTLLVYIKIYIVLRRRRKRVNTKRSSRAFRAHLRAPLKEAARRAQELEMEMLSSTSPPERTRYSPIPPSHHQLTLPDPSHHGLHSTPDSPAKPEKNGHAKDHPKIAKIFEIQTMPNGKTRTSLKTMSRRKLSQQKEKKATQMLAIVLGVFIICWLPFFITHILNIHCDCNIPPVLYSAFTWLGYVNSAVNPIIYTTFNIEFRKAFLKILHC
Nature of the test: Competition radioligand binding, hD2S dopamine. The following applies: [3H]Spiperone; membranes of A9 L cells; read-out: Ki D2.

In test [2] the target is T3, human 5-HT7B (h5-HT7b) receptors (Homo sapiens, UniProt P34969).
T3 construct: expressed in transfected cells
T3 sequence (P34969 1-432 limits assumed): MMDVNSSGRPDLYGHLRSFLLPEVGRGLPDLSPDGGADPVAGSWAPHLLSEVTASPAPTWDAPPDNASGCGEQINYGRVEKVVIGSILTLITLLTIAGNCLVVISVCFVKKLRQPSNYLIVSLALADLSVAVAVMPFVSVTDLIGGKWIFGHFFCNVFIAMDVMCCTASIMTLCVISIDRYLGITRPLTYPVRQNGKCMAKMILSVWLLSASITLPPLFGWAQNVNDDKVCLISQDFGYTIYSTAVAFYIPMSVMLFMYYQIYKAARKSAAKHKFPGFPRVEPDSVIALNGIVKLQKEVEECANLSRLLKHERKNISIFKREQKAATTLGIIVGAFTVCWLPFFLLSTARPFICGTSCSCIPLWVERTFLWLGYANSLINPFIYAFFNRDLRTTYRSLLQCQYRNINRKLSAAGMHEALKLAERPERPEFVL
The test can be described thus: Competition radioligand binding, h5-HT7b. The following applies: [3H]5-CT; membranes of HEK 293 cells; read-out: Ki 5-HT7.
Source text: The compounds of the invention interact with 5-HT receptors and show selectivity for 5-HT receptors. The 5-HT receptor binding properties of the compounds are identified by competitive radioligand binding assays wherein membranes prepared from transfected cells expressing the 5-HT receptor subtype of interest. “Binding constants” refers herein to Ki values measured by inhibition of the binding of radiolabelled ligands that are selective for the 5-HT receptor type being studied. For 5-HT7 receptors, Ki values are determined by measuring the inhibition of 5-carboxamidotryptamine (5-CT) binding, wherein 5-HT7 receptors were incubated with the radiolabelled high affinity ligand, 5-carboxamidotryptamine ([^3H]5-CT), in the presence and absence of the compounds of the invention, at varying concentrations. The compounds of the invention have high binding affinity for serotonin receptors as measured by dissociation constant Ki. […] “Selectivity” for receptor type, in the context of this invention, refers to the ratio of binding constants for the two receptor types being compared. […] The compounds of the present invention preferably show selectivity for 5-HT7 receptors over other serotonin receptor subtypes of greater than about 100. The compounds of the present invention also preferably show selectivity for 5-HT7 receptors over other receptor types, such as dopamine D2, of greater than about 100.
as §1
as §2, with “counter. […]” for “counter.”

The target of test [3] is T4, human 5-HT6 (h5-HT6) receptors (Homo sapiens, UniProt P50406).
T4 construct: purchased Receptor Biology, Inc. (Beltsville, Md.); host or cells: HEK-293 cells
T4 sequence (P50406 whole entry): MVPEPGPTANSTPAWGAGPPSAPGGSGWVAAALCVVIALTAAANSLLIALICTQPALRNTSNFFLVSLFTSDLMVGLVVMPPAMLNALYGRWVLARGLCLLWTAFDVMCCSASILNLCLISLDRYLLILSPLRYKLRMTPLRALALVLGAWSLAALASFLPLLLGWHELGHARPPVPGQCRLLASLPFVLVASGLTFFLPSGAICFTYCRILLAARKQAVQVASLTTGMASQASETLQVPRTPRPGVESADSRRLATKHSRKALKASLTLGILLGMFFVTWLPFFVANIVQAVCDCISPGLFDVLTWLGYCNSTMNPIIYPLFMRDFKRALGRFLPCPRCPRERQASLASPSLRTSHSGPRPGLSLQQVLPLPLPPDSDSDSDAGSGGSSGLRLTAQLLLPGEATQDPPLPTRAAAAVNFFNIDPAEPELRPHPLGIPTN
The test can be described thus: Competition radioligand binding, h5-HT6. The following applies: [3H]LSD; membranes of HEK-293 cells; read-out: Ki 5-HT6.

T1 sequence (P28223 whole entry): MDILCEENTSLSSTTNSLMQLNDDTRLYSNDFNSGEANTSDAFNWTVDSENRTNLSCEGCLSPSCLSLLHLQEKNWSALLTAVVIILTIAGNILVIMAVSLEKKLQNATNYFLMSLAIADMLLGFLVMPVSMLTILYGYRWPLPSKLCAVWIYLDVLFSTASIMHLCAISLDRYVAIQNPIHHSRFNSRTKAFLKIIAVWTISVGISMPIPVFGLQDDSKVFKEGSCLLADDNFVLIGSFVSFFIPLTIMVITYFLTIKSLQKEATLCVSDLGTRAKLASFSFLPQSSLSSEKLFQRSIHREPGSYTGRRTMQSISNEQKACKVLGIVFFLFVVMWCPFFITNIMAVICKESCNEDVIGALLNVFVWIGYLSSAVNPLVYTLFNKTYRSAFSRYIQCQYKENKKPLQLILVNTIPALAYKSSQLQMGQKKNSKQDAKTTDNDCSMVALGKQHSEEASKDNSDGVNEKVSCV

With `Cc1cc(C)cc(CN2CCC(CNC(=O)NC(=N)NCc3cccc4ccccc34)CC2)c1` [Example 62, 1-(3,5-Dimethylbenzyl)4-({[({imino[(1-naphthylmethyl)amino]methyl}amino)carbonyl]amino}methyl)piperidine], the values for the inhibition constant Ki (on human 5HT2a receptors; in test [1]; in test [2]) were 9.8 nM, 490 nM and 22 nM, respectively.

As for `N=C(NCc1cccc2ccccc12)NC(=O)NCC1CCN(Cc2cccc3ccccc23)CC1` [Example 69, 4-({[({Imino[(1-naphthylmethyl)amino]methyl}amino)carbonyl]amino}methyl)-1-(1-naphthylmethyl)piperidine], the Ki at human 5HT2a receptors was determined as 11 nM; in test [1], 720 nM; in test [2], 27 nM.

As to `N=C(NCc1cccc2ccccc12)NC(=O)NCCSCc1c(F)cccc1Cl` [Example 47, 1-[10-(2-Chloro-6-fluorophenyl)-3-imino-5-oxo-9-thia-2,4,6-triazadec-1-yl]naphthalene], the Ki was 530 nM in test [3], 860 nM in test [1] and 120 nM in test [2].

Take `N=C(NCc1cccc2ccccc12)NC(=O)NCc1cccc(CN)c1` [Example 17, 1-({[[({[3-(Aminomethyl)benzyl]amino}carbonyl)amino](imino)methyl]amino}methyl)naphthalene]: the Ki worked out at 680 nM in test [3], 480 nM in test [1] and 11 nM in test [2].

Consider `N=C(NCc1cccc2ccccc12)NC(=O)N[C@@H](CO)c1ccccc1` [Example 19, 1-({[[({[(1R)-2-Hydroxy-1-phenylethyl]amino}carbonyl)amino](imino)methyl]amino}methyl)naphthalene], for which the values for the Ki in test [3], in test [1] and in test [2] were 930 nM, 200 nM and 110 nM, respectively.

Turning to `N=C(NCc1cccc2ccccc12)NC(=O)NCCCO` [Example 16, 1-({[({[(3-Hydroxypropyl)amino}carbonyl}amino)(imino)methyl]amino}methyl)naphthalene], the Ki amounted to 480 nM in test [3], 500 nM in test [1] and 21 nM in test [2].

With `N=C(NCc1cccc2ccccc12)NC(=O)NCC1CCN(Cc2noc(-c3ccccc3)n2)CC1` [Example 64, 4-({[({Imino[(1-naphthylmethyl)amino]methyl}amino)carbonyl]amino}methyl)-1-[(5-phenyl-1,2,4-oxadiazol-3-yl)methyl]piperidine], the inhibitory constant (Ki) on human 5HT2a receptors is 4.2 nM; in test [1], > 2500 nM; in test [2], 91 nM.

For the compound `COCCCNC(=O)NC(=N)NCc1cccc2ccccc12` [Example 38, 1-(3-Imino-5-oxo-10-oxa-2,4,6-triazaundec-1-yl)naphthalene], the inhibition constant (Ki) is 1180 nM in test [3], > 2500 nM in test [1] and 14 nM in test [2].

For the compound `N#Cc1ccc(CN2CCC(CNC(=O)NC(=N)NCc3cccc4ccccc34)CC2)cc1` [Example 59, 1-(4-Cyanobenzyl)-4-({[({imino[(1-naphthylmethyl)amino]methyl}amino)carbonyl]amino}methyl)piperidine], the results for the inhibition constant (Ki) (at human 5HT2a receptors; in test [1]; in test [2]) were 2.6 nM, > 2500 nM and 85 nM, respectively.

With `N=C(NCc1cccc2ccccc12)NC(=O)N[C@H]1c2ccccc2C[C@H]1O` [Example 42, 1-({[[({[(1S,2R)-2-Hydroxy-2,3-dihydro-1H-inden-1-yl]amino}carbonyl)amino](imino)methyl]amino}methyl)naphthalene], the Ki in test [3] came out at 1740 nM; in test [1], 1250 nM; in test [2], 22 nM.

Turning to `N=C(NCc1cccc2ccccc12)NC(=O)NCc1c(N)cccc1F` [Example 44, 1-({[({[(2-Amino-6-fluorobenzyl)amino]carbonyl}amino)(imino)methyl]amino}methyl)naphthalene], the Ki worked out at 500 nM in test [3], 890 nM in test [1] and 33 nM in test [2].

These data come from US20040044037A1, “Amidino-urea serotonin receptor ligands and compositions, their pharmaceutical uses, and methods for their snythesis” (priority 2003, published 2004).
